# Measurements from the METLIN SMRT retention time set (Domingo-Almenara et al. 2019).
# Assay: gradient 5% acetonitrile 3 min, to 50% in 2 min, to 85% in 15 min, held 3 min, 100 µL/min
# Conditions: column: Zorbax Extend-C18 2.1 x 50 mm; eluents: water / acetonitrile, 0.1% formic acid
# In short: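 Pure standards were run in mixtures of ~100 molecules by HPLC coupled to a quadrupole time-of-flight mass spectrometer. The column was a Zorbax Extend-C18 (2.1 × 50 mm, 1.8 μm) at 100 μL/min, with water and acetonitrile each containing 0.1% formic acid, in positive and negative ionization mode. Dead and dwell volumes were 40 μL and 900 μL. Retention time was taken from computationally picked adduct peaks, each manually inspected, with data collected over 3 months.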
row,SMILES,RP-LC retention time [s]
1,CSc1ncn(-c2nc(NC(C)C)nc(N(C)C)n2)n1,874
2,CCCNC(=O)C1CCN(c2ccc(SCC(=O)Nc3ccccc3Cl)nn2)CC1,655
3,Cc1cc(=O)n(CC(=O)Nc2ccccc2)c(-c2ccc(Cl)cc2)n1,1100
4,O=C(N1CCOC(c2ccc(C(F)(F)F)cc2)C1)C1(c2ccc(F)cc2)CC1 (stereo not drawn),1020
5,CNC(=O)CN1c2ccccc2NC2=C(C(=O)CC(C)(C)C2)C1c1ccc(OC)cc1 (stereo not drawn),729
6,O=C(Nc1ccc(OCc2nnc(-c3ccccc3)o2)cc1)c1ccsc1,864
7,C#CC(c1ccccc1)(c1ccccc1)n1ccnc1,739
8,CC(C)NC(=O)CN1CCN(C(=O)Nc2ccc(Cl)cc2)CC1=O,669
9,COc1ccc2nc(Nc3nc(-c4ccncc4)cs3)sc2c1,584
10,CC(C)c1ccc2c(c1)-c1ccccc1S(=O)(=O)N2CC(=O)NCc1ccncc1,699
11,CN1c2cc(F)ccc2C(=O)NC12CCN(C(=O)Nc1ccccc1)CC2,695
12,CN1CCCc2ccc(NC(=O)CC3CCCN(c4cn[nH]c(=O)c4)C3)cc21 (stereo not drawn),638
13,COc1ccccc1Cc1noc(C2CN(S(=O)(=O)c3c(C)noc3C)C2)n1,897
14,Cc1cccc(S(=O)(=O)N2CC(F)(F)C[C@H]2CN2CCc3ccccc3C2)c1,773
15,COc1ccc(Cl)cc1NC(=O)CCc1c(-c2ccc(F)cc2)nc2ccccn12,724
16,CCn1cnc(S(=O)(=O)N2CCCC(C(=O)NC3CCCCCCC3)C2)c1 (stereo not drawn),788
17,CC(C)Cn1cnc2c(-c3ccc(F)cc3)csc2c1=O,1030
18,Cc1noc(COC2CCCN(C(=O)c3ccc(Cl)s3)C2)n1 (stereo not drawn),801
19,Cc1ccccc1-c1nnc(CSc2nnc(NC(=O)Cc3ccccc3Cl)s2)o1,977
20,Cc1noc(C2(NC(=O)c3ccc(C(C)(C)C)cc3)CCCCC2)n1,1090

row,SMILES,RP-LC retention time [s]
1,Cc1ccc(-c2csc(NC(=O)c3ccccc3Br)n2)cc1,1080
2,COc1ccc(CNC(=O)Cn2cnc3nc(N4CCCC(C(=O)NC5CC5)C4)sc3c2=O)cc1 (stereo not drawn),655
3,O=C(NCc1ccc(F)cc1Cl)c1cn(-c2cc(N3CCOCC3)ncn2)cn1,840
4,CCC1(C(=O)Nc2ccc(OC)c(F)c2)CCCCC(=O)N1 (stereo not drawn),720
5,CC(NS(=O)(=O)CCCOc1ccc2c(c1)OCO2)c1ccccc1 (stereo not drawn),750
6,COc1ccc(-n2c(N(C)C)nc3cc(C(=O)NC4CC4)sc32)cc1,653
7,COc1cccc(C(O)CN2CCN(c3ccccc3F)CC2)c1 (stereo not drawn),654
8,O=C(Cc1c[nH]c2ccccc12)N1CCC(c2noc(C3CC3)n2)C1 (stereo not drawn),744
9,Cc1nnsc1C(=O)N1CCC(CNC(=O)c2ccccc2C(F)(F)F)CC1,674
10,CCCC(=O)n1nc(C)c(S(=O)(=O)N2CCOCC2)c1C,954
11,O=S(=O)(c1c(F)cccc1F)N1CCC2(CC1)OCCS2,860
12,CCc1nc(N)n(CC(=O)Nc2cccc(C)c2C)c(=O)c1C,638
13,CCc1nc(N2CCNCC2)c(C#N)c2c1COC(C)(C)C2,627
14,COc1cccc(C(=O)N2C[C@@H]3C[C@H](NC(=O)c4ccccc4)[C@H]2C3)c1OC,682
15,CCOC(=O)C1=C(C)NC(=O)NC1c1ccc(-c2cccc([N+](=O)[O-])c2)o1 (stereo not drawn),761
16,O=C(CN1C(=O)NC2(CCCCC2)C1=O)NCc1ccccc1Cl,746
17,O=C(CCc1c(-c2ccc(Cl)cc2)nc2ccccn12)NCC1CCCO1 (stereo not drawn),602
18,O=c1[nH]c2ccc(NCc3ccc(Cl)c(Cl)c3)cc2[nH]1,707
19,Cc1cc2c(c(=O)n(-c3ccc(F)cc3)c(=O)n2CC(=O)Nc2ccc(F)c(Cl)c2)n1C,854
20,CCS(=O)(=O)Nc1ccc(C2(C(=O)NCc3cccs3)CCCCC2)cc1,913

row,SMILES,RP-LC retention time [s]
1,CCOc1ccccc1NC(=O)Cn1c(-c2ccccc2)nc(CC)cc1=O,1320
2,O=C(CCn1c(=O)c2cccn2c2cccnc21)N1CCN(c2ccccn2)CC1,584
3,CCc1nc2cccnc2n1CCN1CCN(C(=O)Nc2ccc3c(c2)OCCO3)CC1,590
4,CCc1cc(=O)n(CC(=O)N2CCc3ccccc32)c(N)n1,627
5,O=C(NCc1ccccc1)C(=O)NCC1OCCc2ccccc21 (stereo not drawn),893
6,O=C1CCc2cc(NC(=O)c3cc(-c4ccccc4)nc4ccccc34)ccc2N1,818
7,COc1cccc(NC(=O)c2cc3c(s2)CN(C2CC2)C3)c1,760
8,O=C(Nc1cccc(C(F)(F)F)c1)c1cc2ncc(Br)cn2n1,982
9,Cn1c(=O)n(CC(=O)Nc2cccc(Cl)c2)c(=O)c2cnc(-c3ccccc3)nc21,1050
10,CC(NC(=O)CCCn1c2ccccc2c2cnn(C)c(=O)c21)c1ccc2c(c1)OCCO2 (stereo not drawn),842
11,CN(CC1CCOC1)C(=O)Nc1ccc(Cl)cc1F (stereo not drawn),728
12,CC(C)(C)OC(=O)COC(=O)c1cn(-c2ccc(F)cc2)c(=O)c2ccccc12,1140
13,Cc1nnc2c(=O)n(CC(=O)N3CCCC(C)C3)c3cccnc3n12 (stereo not drawn),668
14,CC(Cc1ccco1)NC(=O)CN1C(=O)CN(C(=O)NCc2ccccc2)c2ccccc21 (stereo not drawn),816
15,CCc1cccc(C)c1NC(=O)CCC(=O)N1CCOc2ccccc21,854
16,COc1ccc(-c2nnc(-c3cccnc3NCc3ccc(N(C)C)cc3)o2)cc1,873
17,COc1ccc(CCN(C)CCc2ccc(OC)c(OC)c2)cc1OC,668
18,O=C(O)CC1CCCN(c2cnn(CC3CC3)c(=O)c2)C1 (stereo not drawn),657

# More lines, now with the values ahead:
row,RP-LC retention time [s],SMILES
1,946,COc1cccc(Cn2nc3ccc(S(=O)(=O)N4CCCCCC4)cn3c2=O)c1
2,634,COc1ccc(S(=O)(=O)NC2CCN(C(=O)C3CCN(C(C)=O)CC3)CC2)cc1
3,850,Cc1ncsc1C1N(C2CCN(S(=O)(=O)c3ccccc3)CC2)C(=O)C12CCCC2 (stereo not drawn)
4,564,Cc1ccc(Cn2cc(-c3ccncc3)cc2C(=O)N2CCC(N3CCCCC3)CC2)cc1
5,733,Cc1cc(-c2csc(S(=O)(=O)NCC3CCN(Cc4ccc(Cl)cc4)CC3)c2)on1
6,755,O=c1ccc(S(=O)(=O)N2CCOCC2)cn1Cc1cccc(F)c1
7,771,CCOc1ccc(CNS(=O)(=O)c2cc(C(=O)N3CCCC3)n(C)c2C)cc1
8,901,COc1ccc(-c2nc(-c3cn(Cc4cccc(F)c4)nn3)no2)cc1OC
9,1180,Cc1ccc(-c2nc(-c3ccc(S(=O)(=O)N4CCC(C(=O)N5CCCC5)CC4)cc3)no2)cc1C
10,1250,COc1ccc(-c2noc(-c3nnn4c3COC(c3ccc(C)cc3C)C4)n2)cc1 (stereo not drawn)
11,876,CCOc1ccc(S(=O)(=O)N2CCCC(C(=O)Nc3ccc(S(N)(=O)=O)cc3)C2)cc1C (stereo not drawn)
12,896,COc1ccc(OC)c(NC(=O)N2CCC3(CC2)N=C(c2ccc(C)c(C)c2)C(=O)N3)c1
13,1160,Cc1ccc(-c2nc(C3CC(=O)N(c4ccc(F)c(Cl)c4)C3)no2)cc1 (stereo not drawn)
14,772,Cc1noc(CNC(=O)C2CCN(C(=O)C(C)(C)Oc3ccc(Cl)cc3)CC2)n1
15,650,Cc1cnc(CC2CCN(S(=O)(=O)c3ccccc3)C2)n1C(C)C (stereo not drawn)
16,592,Cc1nn(C(C)C(=O)NCCCN2CCC(N3CCCCC3)CC2)c(=O)c2c1sc1ccccc12 (stereo not drawn)
17,689,COc1ccc(OC)c(S(=O)(=O)N2CCCC(C(=O)Nc3ccc(C(N)=O)cc3)C2)c1 (stereo not drawn)
18,1220,Cc1cccc(N2CCN(c3ccc4nnc(CCc5nc(-c6ccccc6C)no5)n4n3)CC2)c1
19,1070,CCOC(=O)c1noc2nc(C)nc(N3CCN(c4ccccc4F)CC3)c12
20,989,CCCn1c(=O)sc2cc(S(=O)(=O)N3CCC(C(=O)N4CCc5ccccc5C4)CC3)ccc21
21,589,O=C(CN1C(=O)COc2ccc(C(=O)N3CCCC3)cc21)NCCN1CCCCCC1
22,1120,Cc1cccc(-n2c(=O)c3sccc3n(Cc3nc(-c4ccc(OC(C)C)cc4)no3)c2=O)c1
23,686,Cc1ccc(NC(=O)N2CCC(c3cc(N)on3)CC2)cc1
24,1050,N#Cc1ccc(NC(=O)C2CCN(S(=O)(=O)c3cc(-c4noc(C5CCC5)n4)cs3)CC2)cc1
25,767,CC(C)NC(=O)C1CCN(S(=O)(=O)c2cc(C(=O)N3CCCCCC3)cs2)CC1
26,1230,CCOc1ccc(-c2ccc(=O)n(Cc3nc(-c4ccc(CC)cc4)no3)n2)cc1
27,646,COc1cc(NC(=O)COc2ccc(-c3nnc4n3CCCC4)cc2)cc(OC)c1OC
28,681,CC1CCCN(CC2CCN(S(=O)(=O)c3cc(F)cc(F)c3)CC2)C1 (stereo not drawn)
29,820,Cc1cc(N2CCCC2)nc(N2CCN(S(=O)(=O)c3ccc(Br)cc3)CC2)n1
30,878,Cc1ccc(-c2noc(Cn3ncn4nc(-c5cc(C)ccc5C)cc4c3=O)n2)cc1
